Assay results: patent US20230301966A1, “METHOD OF ENHANCING 5-HYDROXYTRYPTOPHAN (5-HTP) EXPOSURE” (Evecxia Therapeutics, Inc., priority 2021, published 2023)
Where two headings read alike, the source gives them in different places.

Experiments:
[1] = Excipient compatibility of 5-HTP and carbidopa blends, storage at 40° C; format: physicochemical; settings: for 5-HTP Impurities at T= 1 month (%) Total / Carbidopa Impurities at T= 1 month (%) Total / 5-HTP Impurities at T= 1 month (%) LSI / Carbidopa Impurities at T= 1 month (%) LSI: 1 month at 40° C; for 5-HTP Impurities at T=7 (%) Total / Carbidopa Impurities at T=7 (%) Total / 5-HTP Impurities at T=7 (%) LSI / Carbidopa Impurities at T=7 (%) LSI: 7 days at 40° C; for 5-HTP Impurities at T= 1 month (%) LSI / Carbidopa Impurities at T= 1 month (%) LSI / 5-HTP Impurities at T=7 (%) LSI / Carbidopa Impurities at T=7 (%) LSI / 5-HTP Impurities at T=0 (%) LSI / Carbidopa Impurities at T=0 (%) LSI: largest single impurity
Procedure: Excipient compatibility studies were performed to examine the stability of 5-HTP and carbidopa mixed together, either the two APIs alone or in the presence of one or two excipients. The stability (assay and level of impurities) was tested using small aliquots of 5-HTP (300 mg) and carbidopa (25 mg) blended together, with or without together excipients. The API/excipient ratios were based on the approximate composition of gastroretentive tablets of 5-HTP and carbidopa in Table 1. There were no significant increases in the levels of impurities for any of the API/excipient(s) combinations at T=0, 7 days and 1 month of storage at 40° C. The maximum percentage increase (largest single impurity) for carbidopa was 0.44%, 0.55%, and 0.86% at T=0, 7 days and 1 month, respectively. The maximum percentage increase for 5-HTP was 0.27%, 0.48%, and 0.49% at T=0, 7 days and 1 month, respectively.

[2] = cited from earlier work
[3] = cited from earlier work; remark: listed apart in the source
[4] = Single-dose pharmacokinetic evaluation of gastroretentive tablets in human healthy volunteers (Example 5); format: in vivo; settings: plasma, oral, 250 mg, single administration, high-fat meal
Procedure: The “fast” 5-HTP (250 mg) / low-dose carbidopa (0.625 mg, 2.5 mg, 5 mg, or 15 mg) gastroretentive tablets were administered orally to subjects from a cohort totaling 16 healthy subjects in a 5-period open label pharmacokinetics study. The subjects’ mean age was ~50 years (33 to 60 years). All were Caucasian, 11 males, 5 females. Average weight was ~80 kg and all body mass index (BMI) < 32.0 kg/m^2. The subjects were admitted to a clinic during the study. The swelling layer of the tablets was radiolabelled with ≤1 MBq ^111In to allow for parallel scintigraphic location of the tablets in the gastrointestinal tract. The tablets were administered in the morning, one tablet per administration, after ingestion of≥80% of the breakfast. Tablets were administered with 210 mL water followed by a radiolabelled drink (radiocontrast) containing NMT 4 MBq technetium-99m-diethylene triaminepentaacetic acid (99mTc-DTPA) in 30 mL of water. […]
In the first 4 periods, the tablets were administered after a standardized FDA high-fat, high-calorie meal (FDA, 2022), in order of increasing doses of carbidopa. […] The 5-HTP and carbidopa in the plasma were analyzed by liquid-chromatography-mass spectrometry. […]
Carbidopa plasma was below lower limit of quantification (1 ng/ml) at all timepoints at the 0.625 mg carbidopa dose strength, and for most time points at the 2.5 mg carbidopa dose strength. […]

[5] = PK simulation to steady-state at twice-daily dosing by non-parametric superposition (NPS); parameters: species or system human; settings: plasma 5-HTP, steady-state at twice-daily administration
Description: Given this T½ for 5-HTP and the known metabolism of 5-HTP by AAAD, non-parametric superpositioning (NPS) pharmacokinetic modeling can be applied to predict steady-state 5-HTP plasma exposure. NPS is an established method known in the field to generally predict steady-state plasma levels of an active pharmaceutical compound. NPS assumes that each dose of an active pharmaceutical compound is metabolized independently of other doses; that the rate and extent of absorption and average systemic clearance are the same for each dosing interval; and that linear pharmacokinetics apply. Based on NPS, the steady-state 5-HTP plasma exposure would be expected to be about 0.25-fold higher (to total about 1.25-fold) than that observed after single-administration. Further, given the T½, steady-state plasma exposure would, according to standard assumptions, be expected to be reached within 5-6 half-lives, i.e., about 1 day.
Plasma pharmacokinetics parameters were estimated using standard Phoenix WinNonlin methods. Data are presented as geometric mean ± SEM. The 5-HTP plasma profiles after single tablet administration of “fast” 5-HTP (250 mg) / low-dose carbidopa (15 mg) tablets following either an FDA high-fat high-calorie meal versus after an FDA moderate-fat, moderate-calorie meal are shown in FIG. 6B. […]

Row | Structure (SMILES) | 5-HTP Impurities at T= 1 month (%) Total [1] | Carbidopa Impurities at T= 1 month (%) Total [1] | 5-HTP Impurities at T=7 (%) Total [1] | Carbidopa Impurities at T=7 (%) Total [1] | 5-HTP Impurities at T=0 (%) Total [1] | Carbidopa Impurities at T=0 (%) Total [1] | 5-HTP Impurities at T= 1 month (%) LSI [1] | Carbidopa Impurities at T= 1 month (%) LSI [1] | 5-HTP Impurities at T=7 (%) LSI [1] | Carbidopa Impurities at T=7 (%) LSI [1] | 5-HTP Impurities at T=0 (%) LSI [1] | Carbidopa Impurities at T=0 (%) LSI [1] | aqueous solubility [3] | further results
1 | C[C@@](Cc1ccc(O)c(O)c1)(NN)C(=O)O [carbidopa] | – | – | – | – | – | – | – | – | – | – | – | – | ~ 1.5 mg/ml | T½ ([2]; known value): 1 to 2 h
2 | N[C@@H](Cc1ccc(O)c(O)c1)C(=O)O [L-DOPA] | – | – | – | – | – | – | – | – | – | – | – | – | – | time for L-DOPA plasma exposure to reach steady-state ([2]; L-DOPA/carbidopa therapy, 600-1200 mg/day and 120-150 mg/day): less than 12 h
3 | N[C@@H](Cc1c[nH]c2ccc(O)cc12)C(=O)O [Sample 5-HTP, 5-hydroxytryptophan] | – | – | – | – | – | – | – | – | – | – | – | – | ~ 15 mg/ml | half-life ([4]; read-out: Elimination half-life (Average) 5-HTP (converted)): 2.9 h; Tmax ([4]; read-out: TMax (Average) 5-HTP): 1 h; Relative steady-state average plasma exposure (average ng/ml gastroretentive /average ng/ml immediate release) [5]: 1; 5-HTP plasma exposure ([2]; 200 mg/day carbidopa with 1,150-2,900 mg/day 5-HTP, separate IR dosage forms, after 8-54 months (Magnussen and Van Woert, 1982b)): 2,000-10,000 ng/ml; Tmax ([2]; native 5-HTP immediate release): ~ 1 h; half-life T½ ([2]; native 5-HTP immediate release): ~ 2 h; oral bioavailability ([2]; native 5-HTP immediate release, one study (WO2019245925)): ~ 20%; bioavailability in the colon ([2]; one study (WO2019245925)): ~ 4%; bioavailability in the upper intestine ([2]; one study (WO2019245925)): ~ 20%

Continued, in another order:

Row | 5-HTP Impurities at T= 1 month (%) Total [1] | Carbidopa Impurities at T= 1 month (%) Total [1] | 5-HTP Impurities at T=7 (%) Total [1] | Carbidopa Impurities at T=7 (%) Total [1] | 5-HTP Impurities at T=0 (%) Total [1] | Carbidopa Impurities at T=0 (%) Total [1] | 5-HTP Impurities at T= 1 month (%) LSI [1] | Carbidopa Impurities at T= 1 month (%) LSI [1] | 5-HTP Impurities at T=7 (%) LSI [1] | Carbidopa Impurities at T=7 (%) LSI [1] | 5-HTP Impurities at T=0 (%) LSI [1] | Carbidopa Impurities at T=0 (%) LSI [1] | Structure (SMILES) | aqueous solubility [3] | further results
4 | 0.26% | 0.00% | 0.23% | 0.00% | 0.23% | 0.00% | 0.12% | 0.00% | 0.12% | 0.00% | 0.13% | 0.00% | N[C@@H](Cc1c[nH]c2ccc(O)cc12)C(=O)O [Sample 17, 5-HTP (control)] | – | –
5 | 0.00% | 0.79% | 0.00% | 0.45% | 0.00% | 0.41% | 0.00% | 0.27% | 0.00% | 0.28% | 0.00% | 0.27% | C[C@@](Cc1ccc(O)c(O)c1)(NN)C(=O)O [Sample 18, Carbidopa (control)] | – | –
